Experimental data: US10750743B2, “Pyridazinone herbicides” (E.I. DU PONT DE NEMOURS AND COMPANY, priority 2015, dated 2020)

Assays:
Type in all cases: in vivo
[1] = test system: blackgrass (Alopecurus myosuroides); assay: Test A postemergence application, visual injury rating; conditions: 0 to 100 scale, 0 no effect, 100 complete control
From the text: (§1) Seeds of plant species selected from barnyardgrass (Echinochloa crus-galli), kochia (Kochia scoparia), ragweed (common ragweed, Ambrosia elatior), ryegrass, It. (Italian ryegrass, Lolium multiflorum), foxtail, giant (giant foxtail, Setaria faberii), and pigweed (Amaranthus retroflexus), were planted into a blend of loam soil and sand and treated preemergence with a directed soil spray using test chemicals formulated in a non-phytotoxic solvent mixture which included a surfactant.
(§2) At the same time, plants selected from these weed species and also wheat (Triticum aestivum), corn (Zea mays), blackgrass (Alopecurus myosuroides), and galium (catchweed bedstraw, Galium aparine), were planted in pots containing the same blend of loam soil and sand and treated with postemergence applications of test chemicals formulated in the same manner Plants ranged in height from 2 to 10 cm and were in the one- to two-leaf stage for the postemergence treatment. Treated plants and untreated controls were maintained in a greenhouse for approximately 10 d, after which time all treated plants were compared to untreated controls and visually evaluated for injury. Plant response ratings, summarized in Table A, are based on a 0 to 100 scale where 0 is no effect and 100 is complete control. A dash (-) response means no test result.

[2] = test system: ryegrass, It. (Italian ryegrass, Lolium multiflorum); assay: as above; conditions: 0 to 100 scale, 0 no effect, 100 complete control
From the text: as §1, §2

[3] = test system: wheat (Triticum aestivum); assay: as above; conditions: 0 to 100 scale, 0 no effect, 100 complete control
From the text: as §1, §2

[4] = test system: ragweed (common ragweed, Ambrosia elatior); assay: as above; conditions: 0 to 100 scale, 0 no effect, 100 complete control
From the text: as §1, §2

kochia (Kochia scoparia) [5] = assay: as above; conditions: 0 to 100 scale, 0 no effect, 100 complete control
From the text: as §1, §2

[6] = test system: foxtail, giant (giant foxtail, Setaria faberii); assay: as above; conditions: 0 to 100 scale, 0 no effect, 100 complete control
From the text: as §1, §2

[7] = test system: pigweed (Amaranthus retroflexus); assay: as above; conditions: 0 to 100 scale, 0 no effect, 100 complete control
From the text: as §1, §2

[8] = test system: galium (catchweed bedstraw, Galium aparine); assay: as above; conditions: 0 to 100 scale, 0 no effect, 100 complete control
From the text: as §1, §2

[9] = test system: barnyardgrass (Echinochloa crus-galli); assay: as above; conditions: 0 to 100 scale, 0 no effect, 100 complete control
From the text: as §1, §2

corn (Zea mays) = assay: as above; conditions: 0 to 100 scale, 0 no effect, 100 complete control
From the text: as §1, §2

[10] = test system: ryegrass, It. (Italian ryegrass, Lolium multiflorum); assay: Test A preemergence, directed soil spray, visual injury rating; conditions: 0 is no effect, 100 is complete control
From the text: as §1, §2

[11] = test system: ragweed (common ragweed, Ambrosia elatior); assay: as above; conditions: 0 is no effect, 100 is complete control
From the text: as §1, §2

kochia (Kochia scoparia) [12] = assay: as above; conditions: 0 is no effect, 100 is complete control
From the text: as §1, §2

[13] = test system: foxtail, giant (giant foxtail, Setaria faberii); assay: as above; conditions: 0 is no effect, 100 is complete control
From the text: as §1, §2

[14] = test system: pigweed (Amaranthus retroflexus); assay: as above; conditions: 0 is no effect, 100 is complete control
From the text: as §1, §2

[15] = test system: barnyardgrass (Echinochloa crus-galli); assay: as above; conditions: 0 is no effect, 100 is complete control
From the text: as §1, §2

Compound	Blackgrass plant response rating ([1]; 125 g ai/ha)	Blackgrass plant response rating ([1]; 500 g ai/ha)	Ryegrass, It. plant response rating ([2]; 125 g ai/ha)	Ryegrass, It. plant response rating ([2]; 500 g ai/ha)	Wheat plant response rating ([3]; 125 g ai/ha)	Wheat plant response rating ([3]; 500 g ai/ha)	Ragweed plant response rating ([4]; 125 g ai/ha)	Ragweed plant response rating ([4]; 500 g ai/ha)	Kochia plant response rating (kochia (Kochia scoparia) [5]; 125 g ai/ha)	Kochia plant response rating (kochia (Kochia scoparia) [5]; 500 g ai/ha)	Foxtail, Giant plant response rating ([6]; 125 g ai/ha)	Foxtail, Giant plant response rating ([6]; 500 g ai/ha)	Pigweed plant response rating ([7]; 125 g ai/ha)	Pigweed plant response rating ([7]; 500 g ai/ha)	Galium plant response rating ([8]; 125 g ai/ha)	Galium plant response rating ([8]; 500 g ai/ha)	Barnyardgrass plant response rating ([9]; 125 g ai/ha)	Barnyardgrass plant response rating ([9]; 500 g ai/ha)	Corn plant response rating (corn (Zea mays); 125 g ai/ha)	Corn plant response rating (corn (Zea mays); 500 g ai/ha)	other results
CCOC(=O)Oc1c(C)nn(C)c(=O)c1-c1cccc2sccc12 [Compound 5]	30	60	70	90	0	20	0	20	0	20	0	20	0	20	30	80	0	20	0	0	Plant response rating (0 to 100 scale), Ryegrass, It. ([10]; 125 g ai/ha): 80; Plant response rating (0 to 100 scale), Ryegrass, It. ([10]; 500 g ai/ha): 100; Plant response rating (0 to 100 scale), Ragweed ([11]; 125 g ai/ha): 0; Plant response rating (0 to 100 scale), Ragweed ([11]; 500 g ai/ha): 20; Plant response rating (0 to 100 scale), Kochia (kochia (Kochia scoparia) [12]; 125 g ai/ha): 10; Plant response rating (0 to 100 scale), Kochia (kochia (Kochia scoparia) [12]; 500 g ai/ha): 30; Plant response rating (0 to 100 scale), Foxtail, Giant ([13]; 125 g ai/ha): 0; Plant response rating (0 to 100 scale), Foxtail, Giant ([13]; 500 g ai/ha): 40; Plant response rating (0 to 100 scale), Pigweed ([14]; 125 g ai/ha): 20; Plant response rating (0 to 100 scale), Pigweed ([14]; 500 g ai/ha): 100; Plant response rating (0 to 100 scale), Barnyardgrass ([15]; 125 g ai/ha): 0; Plant response rating (0 to 100 scale), Barnyardgrass ([15]; 500 g ai/ha): 40
Cc1cnc2sc(C)c(-c3c(O)c(C)nn(C)c3=O)c2c1 [Compound 3]	20	40	20	80	0	20	20	50	30	90	0	30	80	90	30	80	0	30	0	0	Plant response rating (0 to 100 scale), Ryegrass, It. ([10]; 125 g ai/ha): 30; Plant response rating (0 to 100 scale), Ryegrass, It. ([10]; 500 g ai/ha): 70; Plant response rating (0 to 100 scale), Ragweed ([11]; 125 g ai/ha): 0; Plant response rating (0 to 100 scale), Ragweed ([11]; 500 g ai/ha): 40; Plant response rating (0 to 100 scale), Kochia (kochia (Kochia scoparia) [12]; 125 g ai/ha): 0; Plant response rating (0 to 100 scale), Kochia (kochia (Kochia scoparia) [12]; 500 g ai/ha): 20; Plant response rating (0 to 100 scale), Foxtail, Giant ([13]; 125 g ai/ha): 0; Plant response rating (0 to 100 scale), Foxtail, Giant ([13]; 500 g ai/ha): 10; Plant response rating (0 to 100 scale), Pigweed ([14]; 125 g ai/ha): 40; Plant response rating (0 to 100 scale), Pigweed ([14]; 500 g ai/ha): 80; Plant response rating (0 to 100 scale), Barnyardgrass ([15]; 125 g ai/ha): 0; Plant response rating (0 to 100 scale), Barnyardgrass ([15]; 500 g ai/ha): 10
Cc1cnc2sc(C)c(-c3c(OC(=O)OC(C)C)c(C)nn(C)c3=O)c2c1 [Compound 6]	0	20	20	60	0	0	10	30	30	60	20	40	20	80	50	70	0	10	0	0	Plant response rating (0 to 100 scale), Ryegrass, It. ([10]; 125 g ai/ha): 0; Plant response rating (0 to 100 scale), Ryegrass, It. ([10]; 500 g ai/ha): 50; Plant response rating (0 to 100 scale), Ragweed ([11]; 125 g ai/ha): 0; Plant response rating (0 to 100 scale), Kochia (kochia (Kochia scoparia) [12]; 125 g ai/ha): 0; Plant response rating (0 to 100 scale), Kochia (kochia (Kochia scoparia) [12]; 500 g ai/ha): 50; Plant response rating (0 to 100 scale), Foxtail, Giant ([13]; 125 g ai/ha): 20; Plant response rating (0 to 100 scale), Foxtail, Giant ([13]; 500 g ai/ha): 0; Plant response rating (0 to 100 scale), Pigweed ([14]; 125 g ai/ha): 0; Plant response rating (0 to 100 scale), Pigweed ([14]; 500 g ai/ha): 70; Plant response rating (0 to 100 scale), Barnyardgrass ([15]; 125 g ai/ha): 0; Plant response rating (0 to 100 scale), Barnyardgrass ([15]; 500 g ai/ha): 0
CCOC(=O)Oc1c(C)nn(C)c(=O)c1-c1c(C)sc2ncc(C)cc12 [Compound 2]	20	40	30	90	0	20	20	50	30	90	0	20	70	90	40	80	0	20	0	0	Plant response rating (0 to 100 scale), Ryegrass, It. ([10]; 125 g ai/ha): 30; Plant response rating (0 to 100 scale), Ryegrass, It. ([10]; 500 g ai/ha): 100; Plant response rating (0 to 100 scale), Ragweed ([11]; 125 g ai/ha): 0; Plant response rating (0 to 100 scale), Ragweed ([11]; 500 g ai/ha): 20; Plant response rating (0 to 100 scale), Kochia (kochia (Kochia scoparia) [12]; 125 g ai/ha): 0; Plant response rating (0 to 100 scale), Kochia (kochia (Kochia scoparia) [12]; 500 g ai/ha): 60; Plant response rating (0 to 100 scale), Foxtail, Giant ([13]; 125 g ai/ha): 0; Plant response rating (0 to 100 scale), Foxtail, Giant ([13]; 500 g ai/ha): 20; Plant response rating (0 to 100 scale), Pigweed ([14]; 125 g ai/ha): 0; Plant response rating (0 to 100 scale), Pigweed ([14]; 500 g ai/ha): 80; Plant response rating (0 to 100 scale), Barnyardgrass ([15]; 125 g ai/ha): 0; Plant response rating (0 to 100 scale), Barnyardgrass ([15]; 500 g ai/ha): 20
